Patent US8557836B2 (priority 2008, dated 2013)

Biological target: full length Udorn AM2 protein (Influenza A virus, UniProt P0DOF5)
Test: cell-based
Type: cell-based, influenza virus A/Udorn/72
Conditions: for remaining activity at 100 µM: pH 5.5, read-out: AM2 Remaining Activity After 100 μM inhibition; for inhibition of AM2 (in words): 100 μM

Sequence of full length Udorn AM2 protein (P0DOF5 whole entry, looked up): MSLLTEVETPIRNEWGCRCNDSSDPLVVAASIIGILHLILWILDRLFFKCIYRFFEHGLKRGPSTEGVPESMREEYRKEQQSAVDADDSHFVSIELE

Compound	remaining activity at 100 µM [%]	inhibition of AM2 (in words)
C1CCC2(CC1)CCN(C1=NCCN1)CC2 [BL-1743, 3-(4,5-dihydro-1H-imidazol-2-yl)-3-azaspiro[5,5]undecane hydroiodide, reference compound]	25	
C1CCC2(CC1)CCN(CC1CC1)CC2 [Compound 1, 3-(cyclopropylmethyl)-3-azaspiro[5,5]undecane]	100	
C1CCC2(CC1)CCN(CC1CCCC1)CC2 [Compound 2, 3-(cyclopentylmethyl)-3-azaspiro[5,5]undecane]	100	
c1cc(CN2CCC3(CCCCC3)CC2)cs1 [Compound 3, 3-(thiophen-3-ylmethyl)-3-azaspiro[5,5]undecane]	90	
Cn1cc(CN2CCC3(CCCCC3)CC2)cn1 [Compound 4, 3-((1-methyl-1H-pyrazol-4-yl)methyl)-3-azaspiro[5,5]undecane]	100	
Cc1cc(CN2CCC3(CCCCC3)CC2)no1 [Compound 5, 3-(3-azaspiro[5,5]undecan-3-ylmethyl)-5-methylisoxazole]	100	
c1ccc(CN2CCC3(CCCCC3)CC2)nc1 [Compound 6, 3-(pyridin-2-ylmethyl)-3-azaspiro[5,5]undecane]	100	
c1ncc(CN2CCC3(CCCCC3)CC2)[nH]1 [Compound 7, 3-((1H-imidazol-4-yl)methyl)-3-azaspiro[5.5]undecane]	70	moderate inhibition
c1c[nH]c(CN2CCC3(CCCCC3)CC2)n1 [Compound 8, 3-((1H-imidazol-2-yl)methyl)-3-azaspiro[5.5]undecane]	49	moderate inhibition
CC1(C)CCNCC1 [Compound 19, 4,4-dimethylpiperidinium chloride]	75	
CCC1(C)CCNCC1 [Compound 20, 4-ethyl-4-methylpiperidinium chloride]	87	
